Our source for the solubility and EC50 values is patent publication US10766888B1, “HMOX1 inducers” (Mitobridge Inc., priority 2019, dated 2020).

Values after ≈ are worked out from the molar mass of the structure shown.

A short description of one data set: Kinetic solubility. The class given is physicochemical. The following applies: Dulbecco's phosphate buffer saline (DPBS), aqueous buffer, kinetic from dmso stock, DPBS pH 7.4, 25° C., 200 μM test compound. As for the experimental part:
Example 144. Kinetic Solubility
10 μL of 10 mM DMSO stock solution were aliquotted to 490 μL of DMSO solution and separately 490 μL of Dulbecco's phosphate buffer saline, DPBS, pH 7.4 solution in 1.2 mL 96-well plates in duplicate. Final concentration was 200 μM of the test compound. Samples were incubated at 25° C. with shaking at 200 rpm for 16 h. Samples were centrifuged at 3500 rpm for 20 min at 25° C., and supernatant was submitted for HPLC analysis.
Kinetic solubility was measured using the following equation: […]

In data set [1] the test system is Human Heme Oxygenase-1 (HMOX-1). Nature of the data set: ELISA assay to measure human heme oxygenase-1 (HMOX-1) in HepG2 lysate. Format: cell-based. The following applies: human HMOX1 protein level in HepG2 lysate; * = average of 2 or more EC50 determinations; NA = Not Active; read-out: EC50. Summed up: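 HO-1 protein levels were read as fold change over DMSO-treated cells, with EC50 derived from these values. Quantitation used a chemiluminescent streptavidin-HRP capture ELISA, calibrated with an HO-1 standard series starting at 20 ng/ml, run at 20 °C. Samples were HepG2 lysates made with Triton X100/EDTA buffer and diluted 1:20.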
On the technique in general: An ELISA detects its analyte on a solid surface through an enzyme-linked reagent.

One may read the solubility as how much of the substance goes into solution per volume. One may read the EC50 as the concentration that produces a half-maximal response. In the data set “Kinetic solubility”, `Cn1c(Nc2nc3ccc(OC(F)(F)F)cc3o2)nc2cc(C(=O)Nc3cn[nH]c3)ccc21` [Example 46, 1-methyl-N-(1H-pyrazol-4-yl)-2-((6-(trifluoromethoxy)benzo[d]oxazol-2-yl)amino)-1H-benzo[d]imidazole-5-carboxamide] gave a solubility at 16 h of less than 5 µM. Also, the EC50 in data set [1] was found to be 2.2 µM.

The molecule `Cn1c(Nc2nc3ccc(OC(F)(F)F)cc3o2)nc2cc(C(=O)NC(CO)(CO)CO)ccc21` [Example 47, N-(1,3-dihydroxy-2-(hydroxymethyl)propan-2-yl)-1-methyl-2-((6-(trifluoromethoxy)benzo[d]oxazol-2-yl)amino)-1H-benzo[d]imidazole-5-carboxamide] displayed a solubility at 16 h in “Kinetic solubility” of less than 2 µM. Besides, the concentration for a half-maximal effect (EC50) in data set [1] was determined as 1.6 µM.

`Cn1c(Nc2nc3ccc(OC(F)(F)F)cc3o2)nc2cc(C(=O)NC(CO)CO)ccc21` [Example 48, N-(1,3-dihydroxypropan-2-yl)-1-methyl-2-((6-(trifluoromethoxy)benzo[d]oxazol-2-yl)amino)-1H-benzo[d]imidazole-5-carboxamide] showed a solubility at 16 h in the data set “Kinetic solubility” of 3.9 µM (≈ 1.82 µg/mL). Also, the concentration giving a half-maximal response (EC50) in data set [1] is 2 µM.

In the case of `CN(C)CC(=O)NCCNC(=O)c1ccc2c(c1)nc(Nc1nc3ccc(OC(F)(F)F)cc3o1)n2C` [Example 49, N-(2-(2-(dimethylamino)acetamido)ethyl)-1-methyl-2-((6-(trifluoromethoxy)benzo[d]oxazol-2-yl)amino)-1H-benzo[d]imidazole-5-carboxamide], the solubility at 16 h in the data set “Kinetic solubility” is less than 2 µM. Further, the EC50 in data set [1] came out at 0.8 µM.

In the case of `Cn1c(Nc2nc3ccc(OC(F)(F)F)cc3o2)nc2cc(C(=O)NC3COC3)ccc21` [Example 51, 1-methyl-N-(oxetan-3-yl)-2-((6-(trifluoromethoxy)benzo[d]oxazol-2-yl)amino)-1H-benzo[d]imidazole-5-carboxamide], in the data set “Kinetic solubility”, the solubility at 16 h is less than 2 µM. The EC50 in data set [1] worked out at 1.4 µM.

Turning to `Cn1c(Nc2nc3ccc(OC(F)(F)F)cc3o2)nc2cc(C(=O)NCC3(O)COC3)ccc21` [Example 52, N-((3-hydroxyoxetan-3-yl)methyl)-1-methyl-2-((6-(trifluoromethoxy)benzo[d]oxazol-2-yl)amino)-1H-benzo[d]imidazole-5-carboxamide], the solubility at 16 h in the data set “Kinetic solubility” was less than 2 µM. The EC50 in data set [1] was 1 µM.

With `COCCNC(=O)c1ccc2c(c1)nc(Nc1nc3ccc(C(C)C)cc3o1)n2C` [Example 60, 2-((6-isopropylbenzo[d]oxazol-2-yl)amino)-N-(2-methoxyethyl)-1-methyl-1H-benzo[d]imidazole-5-carboxamide], in the data set “Kinetic solubility”, the solubility at 16 h came to 0.9 µM (≈ 0.367 µg/mL). The EC50 in data set [1] turned out to be 0.7 µM.

Regarding `CC(C)c1ccc2nc(Nc3nc4cc(C(=O)NCCO)ccc4n3C)oc2c1` [Example 61, N-(2-hydroxyethyl)-2-((6-isopropylbenzo[d]oxazol-2-yl)amino)-1-methyl-1H-benzo[d]imidazole-5-carboxamide], the solubility at 16 h in the data set “Kinetic solubility” was determined as 1.2 µM (≈ 0.472 µg/mL). The EC50 in data set [1] amounted to 1.5 µM.

In the data set “Kinetic solubility”, `COCCNC(=O)c1ccc2c(c1)nc(Nc1nc3ccc(OC(F)F)cc3o1)n2C` [Example 63, 2-((6-(difluoromethoxy)benzo[d]oxazol-2-yl)amino)-N-(2-methoxyethyl)-1-methyl-1H-benzo[d]imidazole-5-carboxamide] returned a solubility at 16 h of 0.8 µM (≈ 0.345 µg/mL). Further, the EC50 in data set [1] was determined as 1.3 µM.

`Cn1c(Nc2nc3ccc(OC(F)F)cc3o2)nc2cc(C(=O)NCCO)ccc21` [Example 64, 2-((6-(difluoromethoxy)benzo[d]oxazol-2-yl)amino)-N-(2-hydroxyethyl)-1-methyl-1H-benzo[d]imidazole-5-carboxamide]: in the data set “Kinetic solubility”, the solubility at 16 h is 2 µM (≈ 0.835 µg/mL). Further, the EC50 in data set [1] was 1.8 µM.

As to `COCCNC(=O)c1ccc2c(c1)nc(Nc1nc3cc(F)ccc3o1)n2C` [Example 67, 2-((5-fluorobenzo[d]oxazol-2-yl)amino)-N-(2-methoxyethyl)-1-methyl-1H-benzo[d]imidazole-5-carboxamide], the solubility at 16 h in “Kinetic solubility” was less than 5 µM. Moreover, the EC50 in data set [1] came to 0.91 µM.

As to `COCCNC(=O)c1cc2nc(Nc3nc4ccc(OC(F)(F)F)cc4o3)n(C)c2cc1F` [Example 71, 6-fluoro-N-(2-methoxyethyl)-1-methyl-2-((6-(trifluoromethoxy)benzo[d]oxazol-2-yl)amino)-1H-benzo[d]imidazole-5-carboxamide], the solubility at 16 h in the data set “Kinetic solubility” came to 0.3 µM (≈ 0.14 µg/mL). The EC50 in data set [1] stood at 0.73 µM.

In the data set “Kinetic solubility”, `Cn1c(Nc2nc3ccccc3o2)nc2cc(C(=O)NCCOCCO)c(F)cc21` [Example 72, 2-(benzo[d]oxazol-2-ylamino)-6-fluoro-N-(2-(2-hydroxyethoxy)ethyl)-1-methyl-1H-benzo[d]imidazole-5-carboxamide] registered a solubility at 16 h of 2.7 µM (≈ 1.12 µg/mL). In addition, the EC50 in data set [1] was 1.1 µM.

Regarding `O=C(O)c1ccc2c(c1)nc(Nc1nc3ccc(OC(F)(F)F)cc3o1)n2C1CCOCC1` [Example 79, 1-(tetrahydro-2H-pyran-4-yl)-2-((6-(trifluoromethoxy)benzo[d]oxazol-2-yl)amino)-1H-benzo[d]imidazole-5-carboxylic acid], the solubility at 16 h in the data set “Kinetic solubility” amounted to 12.4 µM (≈ 5.73 µg/mL). In addition, in data set [1], the EC50 came out at 4 µM.

In the data set “Kinetic solubility”, `Cn1c(Nc2nc3ccc(Br)cc3o2)nc2cc(C(=O)O)ccc21` [Example 91, 2-((6-bromobenzo[d]oxazol-2-yl)amino)-1-methyl-1H-benzo[d]imidazole-5-carboxylic acid] displayed a solubility at 16 h of 2.6 µM (≈ 1.01 µg/mL). For the same molecule, in data set [1], the EC50 was found to be 2.5 µM.

`COc1ccc2nc(Nc3nc4cc(C(=O)NCCO)ccc4n3C)oc2c1` [Example 92, N-(2-hydroxyethyl)-2-((6-methoxybenzo[d]oxazol-2-yl)amino)-1-methyl-1H-benzo[d]imidazole-5-carboxamide]: the solubility at 16 h in “Kinetic solubility” was found to be 3.5 µM (≈ 1.33 µg/mL). In data set [1], the EC50 turned out to be 1.4 µM.

On to `COCCNC(=O)c1ccc2c(c1)nc(Nc1nc3ccc(OC(F)(F)F)cc3o1)n2CC1(O)COC1` [Example 94, 1-((3-hydroxyoxetan-3-yl)methyl)-N-(2-methoxyethyl)-2-((6-(trifluoromethoxy)benzo[d]oxazol-2-yl)amino)-1H-benzo[d]imidazole-5-carboxamide], for which, in “Kinetic solubility”, the solubility at 16 h turned out to be 0.3 µM (≈ 0.156 µg/mL). The EC50 in data set [1] amounted to 1.3 µM.

`Cn1c(Nc2nc3ccc(Cl)cc3o2)nc2cc(C(=O)NCCO)ccc21` [Example 97, 2-((6-chlorobenzo[d]oxazol-2-yl)amino)-N-(2-hydroxyethyl)-1-methyl-1H-benzo[d]imidazole-5-carboxamide] gave a solubility at 16 h in the data set “Kinetic solubility” of less than 5 µM. Further, in data set [1], the EC50 came to 1.4 µM.

As for `COCCNC(=O)c1ccc2c(c1)nc(Nc1nc3ccc(OCC(F)(F)F)cc3o1)n2C` [Example 99, N-(2-methoxyethyl)-1-methyl-2-((6-(2,2,2-trifluoroethoxy)benzo[d]oxazol-2-yl)amino)-1H-benzo[d]imidazole-5-carboxamide], the solubility at 16 h in the data set “Kinetic solubility” was 0.4 µM (≈ 0.185 µg/mL). Further, in data set [1], the EC50 is 0.92 µM.

With `Cn1c(Nc2nc3ccc(OCC(F)(F)F)cc3o2)nc2cc(C(=O)NCCO)ccc21` [Example 100, N-(2-hydroxyethyl)-1-methyl-2-((6-(2,2,2-trifluoroethoxy)benzo[d]oxazol-2-yl)amino)-1H-benzo[d]imidazole-5-carboxamide], the solubility at 16 h in “Kinetic solubility” amounted to 5.3 µM (≈ 2.38 µg/mL). The EC50 in data set [1] is 1.2 µM.

`COCCNC(=O)c1ccc2c(c1)nc(Nc1nc3ccc(OCCO)cc3o1)n2C` [Example 102, 2-((6-(2-hydroxyethoxy)benzo[d]oxazol-2-yl)amino)-N-(2-methoxyethyl)-1-methyl-1H-benzo[d]imidazole-5-carboxamide] yielded a solubility at 16 h in “Kinetic solubility” of 5.3 µM (≈ 2.25 µg/mL). Also, in data set [1], the EC50 was found to be 1.3 µM.

In “Kinetic solubility”, `Cn1c(Nc2nc3ccc(OCCO)cc3o2)nc2cc(C(=O)NCCO)ccc21` [Example 103, 2-((6-(2-hydroxyethoxy)benzo[d]oxazol-2-yl)amino)-N-(2-hydroxyethyl)-1-methyl-1H-benzo[d]imidazole-5-carboxamide] registered a solubility at 16 h of more than 20 µM. In addition, in data set [1], the EC50 was 3.1 µM.

Consider `Cn1c(Nc2nc3ccc(OCCO)cc3o2)nc2cc(C(=O)NCCOCCO)ccc21` [Example 104, 2-((6-(2-hydroxyethoxy)benzo[d]oxazol-2-yl)amino)-N-(2-(2-hydroxyethoxy)ethyl)-1-methyl-1H-benzo[d]imidazole-5-carboxamide], for which the solubility at 16 h in “Kinetic solubility” stood at 6.6 µM (≈ 3.01 µg/mL). Further, in data set [1], the EC50 amounted to 3.7 µM.

`Cn1c(Nc2nc3cc(F)c(C(F)(F)F)cc3o2)nc2cc(C(=O)NCCO)ccc21` [Example 108, 2-((5-fluoro-6-(trifluoromethyl)benzo[d]oxazol-2-yl)amino)-N-(2-hydroxyethyl)-1-methyl-1H-benzo[d]imidazole-5-carboxamide] yielded a solubility at 16 h in the data set “Kinetic solubility” of 0.3 µM (≈ 0.131 µg/mL). Moreover, the EC50 in data set [1] is 1.5 µM.

Take `COCCNC(=O)c1ccc2c(c1)nc(Nc1nc3cccnc3o1)n2C` [Example 109, N-(2-methoxyethyl)-1-methyl-2-(oxazolo[5,4-b]pyridin-2-ylamino)-1H-benzo[d]imidazole-5-carboxamide]: the solubility at 16 h in “Kinetic solubility” amounted to 7.4 µM (≈ 2.71 µg/mL). Besides, the EC50 in data set [1] was 6.1 µM.

`Cn1c(Nc2nc3cccnc3o2)nc2cc(C(=O)NCCO)ccc21` [Example 110, N-(2-hydroxyethyl)-1-methyl-2-(oxazolo[5,4-b]pyridin-2-ylamino)-1H-benzo[d]imidazole-5-carboxamide] came in with a solubility at 16 h in “Kinetic solubility” of 18.9 µM (≈ 6.66 µg/mL). The EC50 in data set [1] was found to be 7.6 µM.
